For data set [1], the system named is 4T1-FOXP3 cells. The data set can be described thus: Proliferation of 4T1-Ctrl and 4T1-FOXP3 tumor cells in vitro. It counts as cell-based. The conditions noted are these: peptide 50 μM, Figure 2C. As for the experimental part:
The cell line 4T1-FOXP3 expressing FOXP3 was generated. 4T1-WT cells were transfected with empty pcDNA3.1 or with pcDNA3.1 FOXP3, expressing FOXP3 gene and neomycin (which confers resistance to G418 antibiotic) to generate 4T1-Ctrl and 4T1-Foxp3 cells. Briefly, 8 × 10^5 cells were seeded in 6-well culture plates one day prior to transfection. The cultures were 60–80% confluent at the time of transfection. Cells were transfected with 5 ug plasmid DNA per well for 6 hours using lipofectimine 2000 transfection reagent (Invitrogen). After 48 hours, 0.3 mg/mL of G418 drug (GIBCO) was added to the culture during 14 days for the selection of resistant cells. These cells were used in vitro to measure the effect of peptides to overcome the proliferative capacity inhibited by FOXP3. In addition, 4T1-FOXP3 and 4T1-Ctrl cells were injected in vivo (10^5 cells/ mouse) subcutaneously or intravenously to compare their capacity to induce tumors and lung metastases. Murine Lewis lung carcinoma expressing OVA, LLCOVA were kindly provided by Dr. Daniel Ajona (CIMA). The murine colon adenocarcinoma cell line MC38, LLOOVA, 4T1-Ctrl, and 4T1-FOXP3 were cultured in mouse medium (RPMI 1640, 10% fetal calf serum (Sigma), 100 U/mL penicillin, 100 μg/mL streptomycin (Invitrogene), […] Gentamicin (Gibco), 2 mM L-Glutamine (Lifetechnologies), […] β-mercaptoethanol (Sigma), and fungizone (GIBCO). All cell lines were cultured at 37 °C in a humidified atmosphere with 6.5% CO2.

Data set [2] concerns Karpas 299 human cell line. The data set can be described thus: Mixed lymphocyte reaction with Karpas 299 Treg cell line, IFN-γ by ELISA. It is filed as cell-based. The conditions noted are these: MLR of PBMCs from two donors + Karpas 299, peptide 50 μM, 48 h. As for the experimental part:
(§1) In vitro assays were carried out using (i) the Karpas 299 human cell line (ACC-31, DSMZ, Germany), derived from a human lymphoma with a regulatory T cell profile or (ii) using natural Treg cells isolated from the murine splenocytes. To evaluate the effect of peptides on the immunosuppressive activity of the Karpas 299 cell line, a “mixed lymphocyte reaction” (MLR) assay was carried out using peripheral blood mononuclear cells (PBMCs) from two donors (previously tested to induce a strong MLR reaction in co-culture) (1 × 10^5 cells/well per each PBMC) in the presence or absence of Karpas 299 (1 × 10^4 cells/well). Peptides were added at 50 μM to the co-cultures to evaluate their capacity to restore the production of interferon-gamma (IFN-γ) inhibited by Karpas 299. After 48 hours, the supernatants were extracted to measure interferon-gamma (IFN-γ) by means of a commercial ELISA (Pharmingen, San Diego, CA, US). In vitro assays for Treg inhibition using natural Treg cells: Murine CD4+CD25+ (Treg cells), and CD4+CD25-T-cells (effector T cells) were purified from murine spleen cells by using a murine regulatory T-cell isolation kit (Miltenyi Biotec, Bergisch Gladbach, Germany) according to the manufacturer’s instructions. The purity of the resulting T-cell populations was confirmed to be >95% by flow cytometry. Inhibition of murine T regulatory cell function was measured in an in vitro assay of T-cell stimulation. Effector T cells (10^5 cells/well) from BALB/c mice were stimulated in vitro with 2, 5 μg/mL of anti-mouse CD3 antibody (Pharmingen) in the presence/absence of purified Treg cells (10^4 cells/well) and the indicated peptides (50 μM). T-cell proliferation was measured 3 days later as previously described. Percentage of Treg inhibition was calculated using the following formula: % inhibition= 100*((cpm of Teff&Treg co-cultures in the presence of peptide - cpm of Teff&Treg co-cultures)/(cpm of Teff - cpm of Teff&Treg co-cultures)). The Institutional Review Board on Human Subjects (Clínica Universidad de Navarra, Ref 2016.118) approved this research, and informed consent was obtained from all blood donors.
For orientation: In an ELISA, binding on a coated surface is turned into a signal by an enzyme label.

In data set [3] the test system is murine CD4+CD25+ Treg cells. The data set can be described thus: In vitro Treg inhibition: anti-CD3 stimulated effector T cells co-cultured with Treg cells, tritiated thymidine incorporation. It is filed as cell-based, mouse. As to conditions: peptide 50 μM; for Treg inhibitory capacity in vitro (proliferation of effector T cells with anti-CD3 in presence of Treg): BALB/c Teff 10^5 + Treg 10^4 cells/well, 3 days, tritiated thymidine; for toxicity in Teff&Treg co-cultures: cpm below cpm of Teff&Treg co-cultures without peptide. The procedure:
as §1
Background: Dividing cells build labelled thymidine or BrdU into new DNA.

Data set [4] relates to murine CD4+CD25+ Treg cells. Described as above. The conditions noted are these: peptide 10 μM (not shown). It counts as cell-based, mouse.
The test system of data set [5] is FOXP3. The data set can be described thus: Surface plasmon resonance binding of peptides to a chip coated with FOXP3. The conditions noted are these: peptide 10 μM; Figure 4A. The procedure:
(§2) The screening of peptide binders to FOXP3 was performed by surface plasmon resonance (SPR) using a ProteOn XPR36 (Bio-Rad, Hercules CA, USA) optical biosensor. Recombinant protein FOXP3-6His produced and purified from E-coli was immobilized covalently onto a GLC sensor chip (Bio-Rad) using the coupling reagents sulfo-NHS (N-Hydroxysulfosuccinimide) and EDC (1-Ethyl-3-(3-dimethylaminopropyl) carbodiimide, (Bio-Rad) as previously described. Peptide solutions (10 μM) were injected by triplicate in running buffer (phosphate-buffered saline, 0.005% (v/v) Tween 20, pH 7.4) at a flow of 30 μL/min. The interspot signal (obtained in the chip surface not immobilized with protein) was used as reference. FOXP3/NFAT1 and FOXP3/AML1 interactions were analyzed by Alphascreen technology as previously described according to the manufacturer’s protocol (Perkin Elmer, Benelux). Reactions were performed in a 40 μL final volume in 96-well Optiwell microtiter plates (Perkin Elmer). The reaction buffer contained 20 mM HEPES (4-(2-hydroxyethyl)-1-piperazineethanesulfonic acid), pH 7.9, 200 mM KCl, 1 mM MgCl2 and 0.05% bovine serum albumin (BSA). Recombinant NFAT1 expressed with a hexa-Histidine tag was captured by nickel chelate acceptor beads, whereas recombinant FOXP3 expressed with a GST (glutathione S-transferase) tag was captured by glutathione donor beads (Perkin Elmer). For FOXP3 dimerization assays, GST-tagged FOXP3 and His-tagged FOXP3 were co-cultured in the presence or absence of the indicated peptides for 1 h. Then, donor and acceptor beads were added as described above and incubated for 2 h. FOXP3/AML1 interaction was measured following a similar protocol using FOXP3-GST and AML1-His proteins. Exposure of the reaction to direct light was avoided as much as possible, and the emission of light from the acceptor beads was measured in the EnVision plate reader after the indicated incubation period (Perkin Elmer, Benelux).
A general note: SPR reads the build-up and loss of mass on a sensor chip optically.

In data set [6] the test system is FOXP3/NFAT1. The data set can be described thus: FOXP3/NFAT interaction by Alphascreen. The conditions noted are these: alpha screen; Figure 6C. It is filed as binding. The procedure: as §2, with “The reaction buffer contained 20 mM HEPES (4-(2-hydroxyethyl)-1-piperazineethanesulfonic acid), pH 7.9, 200 mM KCl, 1 mM MgCl2 and 0.05% bovine serum albumin (BSA). Recombinant NFAT1 expressed with a hexa-Histidine tag was captured by nickel chelate acceptor beads, whereas recombinant FOXP3 expressed with a GST (glutathione S-transferase) tag was captured by glutathione donor beads (Perkin Elmer). For FOXP3 dimerization assays, GST-tagged FOXP3 and His-tagged FOXP3 were co-cultured in the presence or absence of the indicated peptides for 1 h. Then, donor and acceptor beads were added as described above and incubated for 2 h.” left out

Data set [7] has as its target T1, FOXP3-6His (UniProt Q9BZS1-1 1-417).
T1 construct: FOXP3 (Forkhead box protein 3) transcription factor; also called His-tagged FOXP3
T1 sequence (looked up): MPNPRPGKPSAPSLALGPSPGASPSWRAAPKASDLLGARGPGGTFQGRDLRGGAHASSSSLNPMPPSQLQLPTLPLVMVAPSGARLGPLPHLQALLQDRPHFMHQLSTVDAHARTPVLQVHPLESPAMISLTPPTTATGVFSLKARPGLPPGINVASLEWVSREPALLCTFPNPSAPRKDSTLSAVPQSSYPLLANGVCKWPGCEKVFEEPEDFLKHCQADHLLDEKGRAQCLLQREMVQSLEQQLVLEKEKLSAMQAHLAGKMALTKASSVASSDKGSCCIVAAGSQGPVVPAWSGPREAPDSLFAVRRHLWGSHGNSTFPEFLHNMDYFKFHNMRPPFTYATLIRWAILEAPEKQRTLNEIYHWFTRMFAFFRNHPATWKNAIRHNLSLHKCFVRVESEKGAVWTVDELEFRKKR
Put plainly: SPR; FOXP3-6His immobilised covalently on a GLC sensor chip (ProteOn XPR36); peptides 10 uM injected in triplicate; PBS, 0.005% Tween 20, pH 7.4; 30 uL/min; interspot signal as reference. As to conditions: both partners purified.

For the molecule GGFSLHPWWRFNHDR [p65], the “effect on tumor-suppressor activity of FOXP3 (proliferation of 4T1-FOXP3 versus 4T1-Ctrl cells)” value in data set [1] is “able to inhibit the tumor-suppressor activity”. Besides, the “Treg inhibitory capacity (Karpas MLR assays)” value in data set [2] is recorded as “potential Treg inhibitory capacity”. In the case of “NLSLHKCFVRVESEK [F388–402, 15-mer overlapping peptide from the FKH domain of FOXP3]”, the “Treg inhibitory capacity in vitro (proliferation of effector T cells with anti-CD3 in presence of Treg)” value in data set [3] was “strong Treg inhibitory capacity”.

For the molecule “RTLNEIYHWFTRMFA [F358–372, 15-mer overlapping peptide from the FKH domain of FOXP3]”, the “Treg inhibitory capacity in vitro (proliferation of effector T cells with anti-CD3 in presence of Treg)” value in data set [3] is on record as “strong Treg inhibitory capacity”. RRIVSQLLHPLWSMP [p61]: in data set [2], the “Treg inhibitory capacity (Karpas MLR assays)” value is “potential Treg inhibitory capacity”. As to “IYHWFTRMFAFFRNH [F363–377, 15-mer overlapping peptide from the FKH domain of FOXP3]”, the “toxicity in Teff&Treg co-cultures” value in data set [3] is “some toxicity”; in data set [4], “no toxicity was observed”. Further, the “Treg inhibitory capacity in vitro” value in data set [4] is “did not exhibit Treg inhibitory capacity”. Besides, the “binding capacity to FOXP3 by SPR (FKH domain peptides)” value (“binding capacity to FOXP3 by SPR” below) in data set [5] is recorded as “good binders to FOXP3”. For RSRFFAPFAFLSSGL [p53], the “Treg inhibitory capacity (Karpas MLR assays)” value in data set [2] is recorded as “potential Treg inhibitory capacity”. Regarding “CGISYGRKKRRQRRR-KCFVRVESEKG [TAT-393–403, peptide F393–403 fused to the cell-penetrating peptide TAT (Tat 44–57)]”, in data set [3], the “Treg inhibitory capacity in vitro (proliferation of effector T cells with anti-CD3 in presence of Treg)” value is “significantly improved the Treg inhibitory capacity”. For the molecule “PATWKNAIRHNLSLH [F378–392, 15-mer overlapping peptide from the FKH domain of FOXP3]”, the “binding capacity to FOXP3 by SPR” value in data set [5] is reported as “good binders to FOXP3”. Consider “TRMFAFFRNHPATWK [F368–382, 15-mer overlapping peptide from the FKH domain of FOXP3]”, for which, in data set [3], the “toxicity in Teff&Treg co-cultures” value was “some toxicity”. In data set [4], the “Treg inhibitory capacity in vitro” value was “did not exhibit Treg inhibitory capacity” and the “toxicity in Teff&Treg co-cultures” value was “no toxicity was observed”. Also, the “binding capacity to FOXP3 by SPR” value in data set [5] is “good binders to FOXP3”. As for IRGLRFGPGFMWPTL [p50], the “effect on tumor-suppressor activity of FOXP3 (proliferation of 4T1-FOXP3 versus 4T1-Ctrl cells)” value in data set [1] is “able to inhibit the tumor-suppressor activity”. Also, the “Treg inhibitory capacity (Karpas MLR assays)” value in data set [2] is recorded as “potential Treg inhibitory capacity”. “NAIRHNLSLHKCFVR [F383–397, 15-mer overlapping peptide from the FKH domain of FOXP3]”: the “binding capacity to FOXP3 by SPR” value in data set [5] was “good binders to FOXP3”. With RRQIHLVLPWRAVQS [p52], the “effect on tumor-suppressor activity of FOXP3 (proliferation of 4T1-FOXP3 versus 4T1-Ctrl cells)” value in data set [1] is listed as “able to inhibit the tumor-suppressor activity”. Further, in data set [2], the “Treg inhibitory capacity (Karpas MLR assays)” value was “potential Treg inhibitory capacity”.

“KCFVRVESEKGAVWT [F393–407, 15-mer overlapping peptide from the FKH domain of FOXP3]”: in data set [3], the “level of T-cell proliferation in presence of peptide versus anti-CD3 stimulated T-cells without Treg” value is recorded as “surpassed the maximum proliferation of T-cells stimulated with anti-CD3 in the absence of Treg cells” and the “Treg inhibitory capacity in vitro (proliferation of effector T cells with anti-CD3 in presence of Treg)” value was “strong Treg inhibitory capacity”. For the molecule “RVESEKGAVW [397–406 L, linear version of peptide F397–406 from the FKH domain]”, the “disruption of FOXP3-NFAT heterodimerization” value in data set [6] is recorded as “retained the activity to impair Foxp3/NFAT interaction”.

Turning to “WAILEAPEKQRTLNE [F348–362, 15-mer overlapping peptide from the FKH domain of FOXP3]”, the “Treg inhibitory capacity in vitro (proliferation of effector T cells with anti-CD3 in presence of Treg)” value in data set [3] is recorded as “strong Treg inhibitory capacity”.

As to RDFQSFRKMWPFFAM (source: synthetic peptide) [p60], the SPR response in data set [7] is over 500 RU. On to RRQIHLVLPWRAVQS (source: synthetic peptide) [p52], for which the SPR response in data set [7] is over 500 RU. The same measure, in the same setting: as for GMRFFPWLGVGFAMR (source: synthetic peptide) [p47], the figure is over 500 RU; as for GGFSLHPWWRFNHDR (source: synthetic peptide) [p65], over 500 RU. Molecule GLRERMRLPFFVFGG (source: synthetic peptide) [p49] gave an SPR response in data set [7] of over 500 RU.

In the case of IRGLRFGPGFMWPTL (source: synthetic peptide) [p50], in data set [7], the SPR response is over 500 RU. In data set [7], SSKSLAAPLGLFVVG (source: synthetic peptide) [p55] came in with an SPR response of over 500 RU. Take RFWDYDLMLRVLRPL (source: synthetic peptide) [p59]: the SPR response in data set [7] is over 500 RU.
